In US9096543B2, “Nuclear transport modulators and uses thereof” (Karyopharm Therapeutics Inc., priority 2012, dated 2015):

Experiments:
[1] = MTT Cell Proliferation Assay (CellTiter 96 AQueous One Solution, MTS); type: cell-based; conditions: human; 72 h treatment; cell line not given; read-out: Cytotoxicity [IC50]
Description: The CellTiter 96® AQueous One Solution cell proliferation assay (Promega) was used on MM1.S, Jurkat and HCT-116 cells to study the cytotoxic and cytostatic properties of the compounds. The assay is based on the cleavage of the tetrazolium salt, MTS, in the presence of an electron-coupling reagent PES (phenazine ethosulfate). The MTS tetrazolium compound is bioreduced by cells into a colored formazan product that is soluble in tissue culture medium. This conversion is presumably accomplished by NADPH or NADH produced by dehydrogenase enzymes in metabolically active cells. Assays are performed by adding a small amount of the CellTiter 96® AQueous One solution reagent directly to culture wells, incubating for 1-4 hours and then recording the absorbance at 490 nm with a 96-well plate reader. […] The cells were seeded at 5×10^3 to 1.5×10^4 cells (depending on cell type) in each well of 96-well plate in 100 μL of fresh culture medium and adherent cells were allowed to attach for overnight. The stock solutions of the compounds were diluted in cell culture medium to obtain eight concentrations of each drug, ranging from 1 nM to 30 μM and DMSO at less than 1% v/v was used as a negative control. After 72 h of treatment 20 μl of CellTiter 96® AQueous reagent was added into each well of the 96-well assay plates and the plate was incubate at 37° C. for 1-4 hours in a humidified, 5% CO2 atmosphere. Then the absorbance of each well was recorded at 490 nm by using a 96-well plate reader. In most cases the assay was performed in triplicates and the results were presented as half maximal inhibitory concentration (IC50) described below. Optical density versus compound concentration was plotted and analyzed using non linear regression equations (Excel Fit) and the IC50 for each compound was calculated.

[2] = Brain to plasma ratio (B:P) in mice; type: in vivo; conditions: for Kp at 2 h: mouse, brain and plasma, 10 mg/kg po, 2 hours post-dose
Method: Brain tissue following collection was rinsed with cold saline, dried on filter paper, weighed and snap-frozen by placing on dry ice. All samples were stored frozen at approximately −80° C. until analysis. […] Plasma samples were treated with the identical method (except homogenization step) and concentration of compound in either matrix was calculated based on the generated standard curves.

[3] = biological target: T1, CRM1 (Homo sapiens, UniProt O14980); experiment: RevGFP assay: inhibition of CRM1 mediated nuclear export; type: cell-based; conditions: U2OS-RevGFP cells, ~1 hr with compound; read-out: Rev Export [IC50]
T1 construct: endogenous in cells; host or cells: U2OS-RevGFP cells
Method: The inhibition of CRM1 mediated nuclear export by compounds of the invention was determined. The inhibitory activity of compounds for the CRM1 protein was determined in the RevGFP assay.
Experimental protocol: Rev is a protein from human immunodeficiency virus type 1 (HIV-1) and contains a nuclear export signal (NES) in its C-terminal domain and a nuclear localization signal (NLS) in its N-terminal domain. Nuclear export of Rev protein is dependent on the classical NES/CRM1 pathway (Neville et al, 1997, Kau et al, 2003). Nuclear accumulation of Rev is observed in cells treated with specific inhibitors of CRM1, such as LMB (Kau et al, 2003). In this assay, U2OS-RevGFP cells are seeded onto clear-bottom, black, 384-well plates the day before the experiment. Compounds are serially diluted 1:2 starting from 40 μM in a separate 384-well plate in DMEM, and then transferred onto cells. Cells are incubated with compound for ˜1 hr before fixation with 3.7% formaldehyde and nuclei staining with Hoechst 33258. The amount of GFP in cell nuclei was measured and compound IC50s were determined (Kau et al, 2003).

[4] = Pharmacokinetics (plasma AUC) in mice; type: in vivo; conditions: mouse
Method: Blood was collected from mice (N=3) to contribute to the total of 10 time points (pre-dose, 5 min, 15 min, 30 min, 1 hour, 2 hours, 4 hours, 8 hours, 12 hours and 24 hours post dose). Mice were bled on a rotating basis, each mouse contributing 3 time points to the blood collection. At the designated time points, animals were anaesthetized under isoflurane, and approximately 110 μL of blood per time point was collected via retro-orbital puncture into pre-cooled K2EDTA (anti-coagulant) tubes. Blood samples were put on wet ice and centrifuged (2000 g, 5 min at 4° C.) to obtain plasma within 30 minutes of sample collection. All samples were stored frozen at approximately −80° C. until analysis. Prior to analysis, samples were mixed with internal standard (dexamethasone) in acetonitrile, vortexed, centrifuged, and supernatant was injected for analysis. Concentration of compounds in plasma was determined using LC-MS-MS instrumentation (API 4000, Triple Quadruple with electrospray ionization; Acuity Ultra Performance Liquid Chromatography column C18, with MeOH and formic acid as organic solvents). PK parameters including but not limited to Tmax, Cmax, t1/2, AUClast, AUCinf were calculated using WinNonlin Professional 6.2 software package, non-compartmental pharmacokinetic model NCA200.

T1 sequence (O14980 whole entry): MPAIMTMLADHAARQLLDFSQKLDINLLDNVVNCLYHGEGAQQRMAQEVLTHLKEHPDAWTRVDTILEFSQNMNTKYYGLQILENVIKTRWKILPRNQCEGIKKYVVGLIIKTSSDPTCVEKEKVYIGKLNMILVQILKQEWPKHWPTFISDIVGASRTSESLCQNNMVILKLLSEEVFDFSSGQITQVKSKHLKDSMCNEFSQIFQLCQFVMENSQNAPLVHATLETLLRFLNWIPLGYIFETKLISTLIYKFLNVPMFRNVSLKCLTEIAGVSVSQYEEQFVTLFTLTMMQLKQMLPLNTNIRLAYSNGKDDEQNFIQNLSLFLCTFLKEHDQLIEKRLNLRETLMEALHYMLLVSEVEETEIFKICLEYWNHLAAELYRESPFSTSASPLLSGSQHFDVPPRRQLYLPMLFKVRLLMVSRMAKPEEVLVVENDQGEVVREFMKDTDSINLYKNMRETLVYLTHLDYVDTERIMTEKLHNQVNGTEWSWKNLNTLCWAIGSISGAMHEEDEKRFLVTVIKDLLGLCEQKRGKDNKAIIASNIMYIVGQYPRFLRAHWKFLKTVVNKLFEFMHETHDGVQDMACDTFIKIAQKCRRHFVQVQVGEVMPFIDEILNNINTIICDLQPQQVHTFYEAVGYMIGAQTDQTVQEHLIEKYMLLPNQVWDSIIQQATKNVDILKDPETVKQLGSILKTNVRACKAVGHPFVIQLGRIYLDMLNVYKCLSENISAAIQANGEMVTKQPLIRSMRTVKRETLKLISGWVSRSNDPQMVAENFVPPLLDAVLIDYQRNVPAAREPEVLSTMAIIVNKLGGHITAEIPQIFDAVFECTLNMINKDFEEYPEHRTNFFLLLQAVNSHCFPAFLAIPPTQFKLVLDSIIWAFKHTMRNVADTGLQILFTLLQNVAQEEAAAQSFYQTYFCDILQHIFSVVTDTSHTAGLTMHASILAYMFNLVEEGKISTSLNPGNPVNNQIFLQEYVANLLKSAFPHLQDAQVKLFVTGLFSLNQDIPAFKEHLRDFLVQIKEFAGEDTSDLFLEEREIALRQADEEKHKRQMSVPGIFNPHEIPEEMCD

| Kp at 2 h [2] | IC50 [3] | AUC(0-inf) ([4]; 10 mg/kg po) | AUC(0-inf) ([4]; 5 mg/kg po) | SMILES | IC50 at 72 h [1] | levels in the brain ([2]; dosed po) | AUC(0-inf) ([4]; 5 mg/kg iv) |
| --- | --- | --- | --- | --- | --- | --- | --- |
| 0.028 | – | 20900 ng·h/mL | – | O=C(/C=C\n1cnc(-c2cc(C(F)(F)F)cc(C(F)(F)F)c2)n1)NNC(=S)NC1CC1 [Compound 4, (Z)-2-(3-(3-(3,5-bis(trifluoromethyl)phenyl)-1H-1,2,4-triazol-1-yl)acryloyl)-N-cyclopropylhydrazinecarbothioamide] | < 1000 nM | – | – |
| 0.41 | – | 9150 ng·h/mL | – | O=C(/C=C\n1cnc(-c2cc(C(F)(F)F)cc(C(F)(F)F)c2)n1)NNC(=O)c1cnccn1 [Compound 8, (Z)—N′-(3-(3-(3,5-bis(trifluoromethyl)phenyl)-1H-1,2,4-triazol-1-yl)acryloyl)pyrazine-2-carbohydrazide] | < 1000 nM | – | – |
| – | – | – | 671 ng·h/mL | CN1CCC(C(=O)NNC(=O)/C=C\n2cnc(-c3cc(C(F)(F)F)cc(C(F)(F)F)c3)n2)CC1 [Compound 9, (Z)—N′-(3-(3-(3,5-bis(trifluoromethyl)phenyl)-1H-1,2,4-triazol-1-yl)acryloyl)-1-methylpiperidine-4-carbohydrazide] | < 1000 nM | – | – |
| 0 | – | 1420 ng·h/mL | – | O=C(/C=C\n1cnc(-c2cc(C(F)(F)F)cc(C(F)(F)F)c2)n1)NNC(=O)CN1CCOCC1=O [Compound 14, (Z)-3-(3-(3,5-bis(trifluoromethyl)phenyl)-1H-1,2,4-triazol-1-yl)-N′-(2-(3-oxomorpholino)acetyl)acrylohydrazide] | < 1000 nM | – | – |
| 0 | – | 588 ng·h/mL | – | CC1(C)COCCN1CC(=O)NNC(=O)/C=C\n1cnc(-c2cc(C(F)(F)F)cc(C(F)(F)F)c2)n1 [Compound 15, (Z)-3-(3-(3,5-bis(trifluoromethyl)phenyl)-1H-1,2,4-triazol-1-yl)-N′-(2-(3,3-dimethylmorpholino)acetyl)acrylohydrazide] | < 1000 nM | – | – |

Second part, the molecule before the results:

| SMILES | Kp at 2 h [2] | IC50 [3] | AUC(0-inf) ([4]; 10 mg/kg po) | AUC(0-inf) ([4]; 5 mg/kg po) | IC50 at 72 h [1] | levels in the brain ([2]; dosed po) | AUC(0-inf) ([4]; 5 mg/kg iv) |
| --- | --- | --- | --- | --- | --- | --- | --- |
| Cc1[nH]ncc1C(=O)NNC(=O)/C=C\n1cnc(-c2cc(C(F)(F)F)cc(C(F)(F)F)c2)n1 [Compound 3, (Z)—N′-(3-(3-(3,5-bis(trifluoromethyl)phenyl)-1H-1,2,4-triazol-1-yl)acryloyl)-5-methyl-1H-pyrazole-4-carbohydrazide] | 0.03 | < 1000 nM | 15200 ng·h/mL | – | < 1000 nM | – | – |
| CN(NC(=O)/C=C\n1cnc(-c2cc(C(F)(F)F)cc(C(F)(F)F)c2)n1)C(=O)CN1CCOCC1 [Compound 5, (Z)-3-(3-(3,5-bis(trifluoromethyl)phenyl)-1H-1,2,4-triazol-1-yl)-N′-methyl-N′-(2-morpholinoacetyl)acrylohydrazide] | – | – | – | – | < 1000 nM | – | – |
| O=C(/C=C\n1cnc(-c2cc(C(F)(F)F)cc(C(F)(F)F)c2)n1)NNC(=O)C1CCCNC1 (stereo not drawn) [Compound 6, (Z)—N′-(3-(3-(3,5-bis(trifluoromethyl)phenyl)-1H-1,2,4-triazol-1-yl)acryloyl)piperidine-3-carbohydrazide] | – | – | – | – | < 1000 nM | – | – |
| CC(C)[C@H](N)C(=O)NNC(=O)/C=C\n1cnc(-c2cc(C(F)(F)F)cc(C(F)(F)F)c2)n1 [Compound 7, (S,Z)-2-amino-N′-(3-(3-(3,5-bis(trifluoromethyl)phenyl)-1H-1,2,4-triazol-1-yl)acryloyl)-3-methylbutanehydrazide 2,2,2-trifluoroacetate] | – | – | – | – | < 1000 nM | – | – |
| CC(C)[C@@H](N)C(=O)NNC(=O)/C=C\n1cnc(-c2cc(C(F)(F)F)cc(C(F)(F)F)c2)n1 [Compound 10, (R,Z)-2-amino-N′-(3-(3-(3,5-bis(trifluoromethyl)phenyl)-1H-1,2,4-triazol-1-yl)acryloyl)-3-methylbutanehydrazide 2,2,2-trifluoroacetate] | – | – | – | – | < 1000 nM | – | – |
| O=C(/C=C\n1cnc(-c2cc(C(F)(F)F)cc(C(F)(F)F)c2)n1)NNC(=O)Cc1cnccn1 [Compound 11, (Z)-3-(3-(3,5-bis(trifluoromethyl)phenyl)-1H-1,2,4-triazol-1-yl)-N′-(2-(pyrazin-2-yl)acetyl)acrylohydrazide] | 0.095 | – | 8340 ng·h/mL | – | < 1000 nM | – | – |
| O=C(/C=C\n1cnc(-c2cc(C(F)(F)F)cc(C(F)(F)F)c2)n1)NNC(=O)C(=O)N1CCOCC1 [Compound 12, (Z)-3-(3-(3,5-bis(trifluoromethyl)phenyl)-1H-1,2,4-triazol-1-yl)-N′-(2-morpholino-2-oxoacetyl)acrylohydrazide] | 0.06 | < 1000 nM | 19600 ng·h/mL | – | < 1000 nM | – | – |
| CC1COCC(C)N1CC(=O)NNC(=O)/C=C\n1cnc(-c2cc(C(F)(F)F)cc(C(F)(F)F)c2)n1 (stereo not drawn) [Compound 13, (Z)-3-(3-(3,5-bis(trifluoromethyl)phenyl)-1H-1,2,4-triazol-1-yl)-N′-(2-(3,5-dimethylmorpholino)acetyl)acrylohydrazide] | 1.5 | – | 1100 ng·h/mL | – | < 1000 nM | – | – |
| COc1cc(-c2ncn(/C=C\C(=O)OC(C)C)n2)cc(C(F)(F)F)c1 [Compound X-1, reference compound] | – | < 1000 nM | – | – | < 1000 nM | below the quantitation limit | 209 ng·h/mL |
